Measured values reported in BindingDB's records for patent US12384753 (Enanta Pharmaceuticals, 2025).

Target: T1, 17-beta-hydroxysteroid dehydrogenase 13 (Homo sapiens, UniProt Q7Z5P4)
T1 sequence (Q7Z5P4 whole entry): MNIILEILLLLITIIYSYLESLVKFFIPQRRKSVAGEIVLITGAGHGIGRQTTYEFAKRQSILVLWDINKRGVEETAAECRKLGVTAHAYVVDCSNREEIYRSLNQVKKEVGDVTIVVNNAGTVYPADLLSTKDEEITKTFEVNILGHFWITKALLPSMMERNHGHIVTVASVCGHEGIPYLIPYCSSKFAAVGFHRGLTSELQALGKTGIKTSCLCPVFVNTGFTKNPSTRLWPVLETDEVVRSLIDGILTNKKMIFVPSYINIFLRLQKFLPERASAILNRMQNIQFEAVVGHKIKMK
Assay: HSD17B13 rapid-fire mass spectrometry assay (RF/MS assay)
Excerpt: Recombinant human HSD17B13 was expressed and purified from sf9 cells at Charles River Labs (Saffron Walden, UK). Leukotriene B4 (Catalog #71160-24-2) and 12-oxoleukotriene B4 (Catalog #20140) were purchased from Cayman Chemicals (Ann Arbor, Michigan.). NAD+ (Catalog #N8285), BSA (Catalog #A7030), DMSO (Catalog #D2650), and Tween-20 (Catalog #11332465001) were purchased from Sigma (St. Louis, MO). Formic acid (Catalog #28905) was from ThermoFisher Scientific and 384 deep well PP microplates (Catalog #784261) were from Greiner Bio-One. In a typical IC50 assay performed in a 384w PP microplate, test compounds (0-100 μM) were incubated with HSD17B13 (80 nM), LTB4 (10 μM), and NAD+ (0.5 mM) in 10 μL assay buffer (20 mM Tris (pH 7.5), BSA (0.005%), and Tween-20 (0.01%)) at RT for 3 h. The assays were quenched by adding 20 μL of 0.15% aqueous formic acid and the plates were frozen at −80° C. RF/MS analysis was performed at PureHoney Technologies (Billerica, MA) on a RapidFire RF300 system (Agilent Technologies, Inc.) coupled to an API 4000 triple quadrupole mass spectrometer (Sciex) equipped with Agilent RapidFire cartridge type A (C4). The mobile phase was 0.09% formic acid and 0.01% trifluoracetic acid in water (Buffer A) and 0.09% formic acid and 0.01% trifluoracetic acid in 80% aqueous acetonitrile (Buffer B). The RapidFire method conditions were the following: 250 ms aspirate, 3000 ms load/desalt, 4000 ms elute, and 500 ms re-equilibrate. RF-MS/MS was performed in negative polarity (−4500 V), the source temperature was 650° C., and gas 1 and gas 2 settings for nitrogen were set to 50. The curtain gas and collision gas were also nitrogen and were set to 20 and 12, respectively. Leukotriene B4 (335.3) and 12-oxoLeukotriene B4 (333.3) SRM transitions were optimized with Discovery Quant software and extracted ion counts for these analytes were determined. Data Analysis. HSD17B13 enzyme activity was measured as percent conversion of extracted ion counts and normalized to high and low controls to determine percent residual activity at various concentrations of test compounds. […]

Compound	IC50
COc1ccc(C#Cc2nc(S(=O)(=O)Nc3ccc(C(=O)O)cc3OC)cs2)c(C2CC2)c1 [US12384753, Example 396]	< 100 nM
COc1cc(C(=O)O)ccc1NS(=O)(=O)c1coc(-c2ccc(F)cc2)n1 [US12384753, Example 417]	< 100 nM
COc1cc(C(=O)O)ccc1NS(=O)(=O)c1coc(-c2ccc(Cl)cc2)n1 [US12384753, Example 418]	< 100 nM
